Calls of active or inactive are those of the source. The calls are words filed in the database; no cut-off is given here.
What was measured:
[1] = Cmax in Sprague-Dawley rat at 3 mg/kg, iv measured up to 24 hrs by LC-MS/MS analysis; format: ADME, organism-based; design: route intravenous, dose 3 mg/kg, time <=24; settings: in vivo
[2] = AUC (0 to t) in Sprague-Dawley rat at 3 mg/kg, iv measured up to 24 hrs by LC-MS/MS analysis; format: ADME, organism-based; design: route intravenous, dose 3 mg/kg, time <=24; settings: in vivo
[3] = Metabolic stability in rat liver microsomes assessed as half life at 100 uM/L measured upto 90 mins by LC-MS/MS analysis; format: ADME, Microsome
[4] = Metabolic stability in dog liver microsomes assessed as half life at 100 uM/L measured upto 90 mins by LC-MS/MS analysis; format: ADME, Canis lupus familiaris, Microsome
[5] = biological target: Tyrosine-protein kinase JAK1 (Homo sapiens, UniProt P23458); experiment: Inhibition of JAK1 (unknown origin)
Tyrosine-protein kinase JAK1, sequence (P23458 whole entry): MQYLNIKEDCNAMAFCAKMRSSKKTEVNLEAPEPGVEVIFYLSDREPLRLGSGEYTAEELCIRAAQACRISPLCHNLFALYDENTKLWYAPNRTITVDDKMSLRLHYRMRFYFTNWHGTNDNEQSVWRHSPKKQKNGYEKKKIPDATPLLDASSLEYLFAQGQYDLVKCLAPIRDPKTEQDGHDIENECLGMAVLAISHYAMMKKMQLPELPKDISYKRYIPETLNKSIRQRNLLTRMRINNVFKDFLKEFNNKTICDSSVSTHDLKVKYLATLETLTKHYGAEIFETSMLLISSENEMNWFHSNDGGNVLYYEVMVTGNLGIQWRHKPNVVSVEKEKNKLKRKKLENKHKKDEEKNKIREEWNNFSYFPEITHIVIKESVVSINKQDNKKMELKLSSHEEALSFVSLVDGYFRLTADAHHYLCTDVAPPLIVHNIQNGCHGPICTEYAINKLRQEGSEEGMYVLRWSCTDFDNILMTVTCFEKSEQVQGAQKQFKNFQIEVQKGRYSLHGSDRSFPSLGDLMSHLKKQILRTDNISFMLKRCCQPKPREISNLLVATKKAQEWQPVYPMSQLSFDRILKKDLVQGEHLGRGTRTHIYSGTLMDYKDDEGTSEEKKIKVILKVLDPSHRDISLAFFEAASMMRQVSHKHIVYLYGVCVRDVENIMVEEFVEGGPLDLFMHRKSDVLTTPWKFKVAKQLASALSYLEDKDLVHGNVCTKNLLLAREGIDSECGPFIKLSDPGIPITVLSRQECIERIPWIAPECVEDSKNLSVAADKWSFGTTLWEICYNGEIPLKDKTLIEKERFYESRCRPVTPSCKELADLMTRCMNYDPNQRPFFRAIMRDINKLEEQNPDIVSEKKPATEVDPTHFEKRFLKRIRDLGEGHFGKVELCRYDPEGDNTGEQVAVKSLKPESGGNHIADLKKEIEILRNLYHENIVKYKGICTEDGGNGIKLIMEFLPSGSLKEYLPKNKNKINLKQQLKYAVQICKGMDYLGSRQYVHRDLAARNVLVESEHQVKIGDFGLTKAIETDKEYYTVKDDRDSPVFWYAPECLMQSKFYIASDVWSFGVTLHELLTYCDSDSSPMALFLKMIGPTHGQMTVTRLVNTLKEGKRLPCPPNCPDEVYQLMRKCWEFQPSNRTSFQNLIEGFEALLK

[6] = biological target: Tyrosine-protein kinase TXK (Homo sapiens, UniProt P42681); experiment: Inhibition of TXK (unknown origin)
[7] = biological target: T1, Tyrosine-protein kinase BTK (Homo sapiens, UniProt Q06187); experiment: Inhibition of BTK in human U2932 cells assessed as reduction in BTK Y551 phosphorylation at 0.03 to 10 uM incubated for 1 hr by Western blot analysis; format: cell-based; settings: dose 0.03-10 µM
T1 sequence (Q06187 whole entry): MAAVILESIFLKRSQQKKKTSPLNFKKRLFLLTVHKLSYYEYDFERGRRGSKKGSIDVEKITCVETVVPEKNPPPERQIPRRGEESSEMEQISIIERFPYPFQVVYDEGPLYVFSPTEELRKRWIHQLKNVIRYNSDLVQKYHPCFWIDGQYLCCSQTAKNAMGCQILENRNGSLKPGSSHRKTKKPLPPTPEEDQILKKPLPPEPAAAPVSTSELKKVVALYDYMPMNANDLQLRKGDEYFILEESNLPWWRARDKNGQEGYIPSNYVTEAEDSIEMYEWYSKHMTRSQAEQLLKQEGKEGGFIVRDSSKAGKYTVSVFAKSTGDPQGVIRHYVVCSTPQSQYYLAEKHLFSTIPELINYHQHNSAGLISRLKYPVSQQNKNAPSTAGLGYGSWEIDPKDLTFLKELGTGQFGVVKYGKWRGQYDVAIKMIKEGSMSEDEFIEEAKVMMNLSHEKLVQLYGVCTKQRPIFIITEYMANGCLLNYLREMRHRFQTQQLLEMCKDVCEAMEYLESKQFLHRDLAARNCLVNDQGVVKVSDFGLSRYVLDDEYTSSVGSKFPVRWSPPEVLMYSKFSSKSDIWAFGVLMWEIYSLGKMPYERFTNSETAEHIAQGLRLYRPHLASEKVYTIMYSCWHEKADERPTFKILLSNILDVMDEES

Mus musculus [8] = experiment: Antiarthritic activity in DBA/1J mouse model of collagen-induced arthritis at 20 mg/kg, po administered for 30 days and measured on day 30; format: functional, organism-based; settings: time 30.0 day
[9] = Half life in Sprague-Dawley rat at 3 mg/kg, iv measured up to 24 hrs by LC-MS/MS analysis; format: ADME, organism-based; settings: in vivo
[10] = biological target: Dual specificity mitogen-activated protein kinase kinase 7 (Homo sapiens, UniProt O14733); experiment: Inhibition of MKK7beta (unknown origin)
Dual specificity mitogen-activated protein kinase kinase 7, sequence (O14733 whole entry): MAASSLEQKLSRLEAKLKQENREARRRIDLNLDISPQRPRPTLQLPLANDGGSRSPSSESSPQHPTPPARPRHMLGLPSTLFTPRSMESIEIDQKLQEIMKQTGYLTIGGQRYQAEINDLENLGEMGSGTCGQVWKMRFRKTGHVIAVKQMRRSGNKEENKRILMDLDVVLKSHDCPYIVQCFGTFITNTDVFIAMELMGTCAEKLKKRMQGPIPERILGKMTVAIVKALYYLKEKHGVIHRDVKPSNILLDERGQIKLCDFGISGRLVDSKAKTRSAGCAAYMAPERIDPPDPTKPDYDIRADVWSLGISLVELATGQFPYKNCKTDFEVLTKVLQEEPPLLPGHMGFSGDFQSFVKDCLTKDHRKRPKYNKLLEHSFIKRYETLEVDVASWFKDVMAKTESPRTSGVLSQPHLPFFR

[11] = Metabolic stability in human liver microsomes assessed as half life at 100 uM/L measured upto 90 mins by LC-MS/MS analysis; format: ADME, Microsome
[12] = biological target: Tyrosine-protein kinase Yes (Homo sapiens, UniProt P07947); experiment: Inhibition of recombinant human YES using biotinyl-beta Abeta-Abeta AYQAEENTYDEYEN as substrate incubate for 30 mins by LANCE assay
[13] = biological target: Proto-oncogene tyrosine-protein kinase Src (Homo sapiens, UniProt P12931); experiment: Inhibition of recombinant human SRC using Ulight-Poly GAT[EAY(1:1:1)]n as substrate incubate for 10 mins by LANCE assay
[14] = AUC (0 to t) in Sprague-Dawley rat at 3 mg/kg, po measured up to 24 hrs by LC-MS/MS analysis; format: ADME, organism-based; design: route oral, dose 3 mg/kg, time <=24; settings: in vivo
[15] = biological target: Macrophage colony-stimulating factor 1 receptor (Homo sapiens, UniProt P07333); experiment: Inhibition of recombinant human FMS using Ulight-TK peptide as substrate incubate for 15 mins by LANCE assay
[16] = biological target: Proto-oncogene tyrosine-protein kinase receptor Ret (Homo sapiens, UniProt P07949); experiment: Inhibition of RET (unknown origin)
[17] = biological target: Tyrosine-protein kinase FRK (Homo sapiens, UniProt P42685); experiment: Inhibition of FRK (unknown origin)
[18] = biological target: Calcium/calmodulin-dependent protein kinase type 1 (Homo sapiens, UniProt Q14012); experiment: Inhibition of CAMK1 (unknown origin)
Calcium/calmodulin-dependent protein kinase type 1, sequence (Q14012 whole entry): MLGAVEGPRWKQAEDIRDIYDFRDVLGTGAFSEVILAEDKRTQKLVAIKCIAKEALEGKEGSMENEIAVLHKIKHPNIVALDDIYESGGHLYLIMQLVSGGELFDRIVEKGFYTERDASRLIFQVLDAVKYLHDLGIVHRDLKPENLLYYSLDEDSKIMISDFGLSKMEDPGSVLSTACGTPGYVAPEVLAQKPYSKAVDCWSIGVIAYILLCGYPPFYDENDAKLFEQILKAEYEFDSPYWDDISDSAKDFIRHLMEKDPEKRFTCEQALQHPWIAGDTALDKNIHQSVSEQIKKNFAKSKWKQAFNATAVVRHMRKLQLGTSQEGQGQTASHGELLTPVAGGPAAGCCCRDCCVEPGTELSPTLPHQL

[19] = Metabolic stability in monkey liver microsomes assessed as intrinsic clearance at 100 uM/L measured upto 90 mins by LC-MS/MS analysis; format: ADME, Macaca mulatta, Microsome; settings: rhesus monkey, 1.5 h
[20] = biological target: Ribosomal protein S6 kinase alpha-3 (Homo sapiens, UniProt P51812); experiment: Inhibition of recombinant human RSK2 using Histone H3 full length as substrate incubate for 10 mins by LANCE assay
[21] = biological target: T1, Tyrosine-protein kinase BTK; experiment: Inhibition of BTK in human Daudi cells assessed as reduction in BTK Y551 phosphorylation at 0.03 to 10 uM incubated for 1 hr by Western blot analysis; format: cell-based; settings: dose 0.03-10 µM
[22] = biological target: T1, Tyrosine-protein kinase BTK; experiment: Inhibition of BTK in human U2932 cells assessed as reduction in PLCgamma2 Y1217 phosphorylation at 0.03 to 10 uM incubated for 1 hr by Western blot analysis; format: cell-based; settings: dose 0.03-10 µM
[23] = Clearance in Sprague-Dawley rat at 3 mg/kg, po measured up to 24 hrs by LC-MS/MS analysis; format: ADME, organism-based; settings: in vivo
[24] = Metabolic stability in mouse liver microsomes assessed as intrinsic clearance at 100 uM/L measured upto 90 mins by LC-MS/MS analysis; format: ADME, Microsome; settings: 1.5 h
Mus musculus [25] = experiment: Antiarthritic activity in DBA/1J mouse model of collagen-induced arthritis assessed as reduction in edema formation at 20 mg/kg, po administered for 30 days and measured on day 30; format: functional, organism-based; settings: time 30.0 day
[26] = biological target: Tyrosine-protein kinase Blk (Homo sapiens, UniProt P51451); experiment: Inhibition of BLK (unknown origin)
[27] = Toxicity in BALB/c mouse assessed as effect on kidney at 2 g/kg, po measured after 7 days of administration by histopathological analysis; settings: in vivo, 168 h
[28] = biological target: Dual specificity mitogen-activated protein kinase kinase 4 (Homo sapiens, UniProt P45985); experiment: Inhibition of MKK4 (unknown origin)
Dual specificity mitogen-activated protein kinase kinase 4, sequence (P45985 whole entry): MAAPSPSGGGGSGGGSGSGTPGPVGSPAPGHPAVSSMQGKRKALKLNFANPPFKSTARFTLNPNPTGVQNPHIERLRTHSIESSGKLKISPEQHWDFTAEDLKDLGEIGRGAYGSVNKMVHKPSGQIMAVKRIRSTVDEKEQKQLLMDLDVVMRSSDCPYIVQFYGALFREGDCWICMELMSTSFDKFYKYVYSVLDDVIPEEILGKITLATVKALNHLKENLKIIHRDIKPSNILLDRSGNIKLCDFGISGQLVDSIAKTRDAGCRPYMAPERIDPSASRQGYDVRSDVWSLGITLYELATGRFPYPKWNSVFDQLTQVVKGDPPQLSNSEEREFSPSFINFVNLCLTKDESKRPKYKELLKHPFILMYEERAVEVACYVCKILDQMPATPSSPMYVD

[29] = Metabolic stability in rat liver microsomes assessed as intrinsic clearance at 100 uM/L measured upto 90 mins by LC-MS/MS analysis; format: ADME, Microsome; settings: 1.5 h
[30] = biological target: Ribosomal protein S6 kinase beta-1 (Homo sapiens, UniProt P23443); experiment: Inhibition of recombinant human p70S6K using CREBtide as substrate incubate for 15 mins by LANCE assay
Ribosomal protein S6 kinase beta-1, sequence (P23443 whole entry): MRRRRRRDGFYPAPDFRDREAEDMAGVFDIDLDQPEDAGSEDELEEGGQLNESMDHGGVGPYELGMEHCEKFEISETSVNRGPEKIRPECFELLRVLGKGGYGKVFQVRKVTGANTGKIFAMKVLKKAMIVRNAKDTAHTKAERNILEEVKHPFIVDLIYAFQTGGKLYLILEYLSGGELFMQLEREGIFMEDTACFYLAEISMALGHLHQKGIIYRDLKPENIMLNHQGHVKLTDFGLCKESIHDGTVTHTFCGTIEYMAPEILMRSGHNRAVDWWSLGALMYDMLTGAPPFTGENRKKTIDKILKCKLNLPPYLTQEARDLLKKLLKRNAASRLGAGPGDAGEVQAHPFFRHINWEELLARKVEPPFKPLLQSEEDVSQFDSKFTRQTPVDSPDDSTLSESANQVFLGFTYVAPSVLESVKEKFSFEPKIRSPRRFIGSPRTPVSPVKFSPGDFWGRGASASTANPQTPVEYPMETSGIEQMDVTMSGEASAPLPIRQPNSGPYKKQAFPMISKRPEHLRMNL

[31] = biological target: Receptor tyrosine-protein kinase erbB-4 (Homo sapiens, UniProt Q15303); experiment: Inhibition of ErBB4 (unknown origin)
Receptor tyrosine-protein kinase erbB-4, sequence (Q15303 whole entry): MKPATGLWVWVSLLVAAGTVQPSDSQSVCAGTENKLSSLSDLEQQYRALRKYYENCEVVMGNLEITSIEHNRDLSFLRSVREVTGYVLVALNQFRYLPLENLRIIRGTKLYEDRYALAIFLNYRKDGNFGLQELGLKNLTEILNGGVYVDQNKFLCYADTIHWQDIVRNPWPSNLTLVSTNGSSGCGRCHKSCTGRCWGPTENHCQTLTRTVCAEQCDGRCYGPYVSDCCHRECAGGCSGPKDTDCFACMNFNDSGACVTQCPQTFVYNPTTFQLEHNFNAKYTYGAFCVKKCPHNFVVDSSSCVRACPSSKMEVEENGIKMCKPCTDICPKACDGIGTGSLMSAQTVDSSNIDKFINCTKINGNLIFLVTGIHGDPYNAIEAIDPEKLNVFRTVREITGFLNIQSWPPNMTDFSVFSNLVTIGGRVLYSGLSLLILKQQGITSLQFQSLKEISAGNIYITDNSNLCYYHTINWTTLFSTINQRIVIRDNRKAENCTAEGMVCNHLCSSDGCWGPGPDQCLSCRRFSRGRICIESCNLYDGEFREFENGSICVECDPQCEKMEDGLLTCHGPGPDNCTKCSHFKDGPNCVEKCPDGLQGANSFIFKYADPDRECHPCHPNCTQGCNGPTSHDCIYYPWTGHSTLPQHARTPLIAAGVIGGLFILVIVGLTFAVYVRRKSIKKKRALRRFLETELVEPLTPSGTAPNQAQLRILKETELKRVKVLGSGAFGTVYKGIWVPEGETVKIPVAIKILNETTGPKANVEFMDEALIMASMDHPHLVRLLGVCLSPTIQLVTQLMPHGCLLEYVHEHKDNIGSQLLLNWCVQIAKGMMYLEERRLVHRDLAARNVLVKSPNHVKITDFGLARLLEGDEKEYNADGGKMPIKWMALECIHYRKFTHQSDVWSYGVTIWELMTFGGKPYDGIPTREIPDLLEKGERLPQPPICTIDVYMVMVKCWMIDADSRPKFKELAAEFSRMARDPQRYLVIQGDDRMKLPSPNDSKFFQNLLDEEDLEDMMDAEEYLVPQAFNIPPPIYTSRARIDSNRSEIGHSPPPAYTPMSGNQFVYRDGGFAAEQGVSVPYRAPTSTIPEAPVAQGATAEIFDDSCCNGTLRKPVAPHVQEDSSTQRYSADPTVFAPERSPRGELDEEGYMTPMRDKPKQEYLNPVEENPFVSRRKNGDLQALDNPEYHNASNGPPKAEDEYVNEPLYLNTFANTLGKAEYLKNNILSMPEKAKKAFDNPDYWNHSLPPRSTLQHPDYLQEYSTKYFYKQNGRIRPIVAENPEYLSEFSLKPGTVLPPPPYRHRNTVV

[32] = biological target: Mitogen-activated protein kinase kinase kinase 7 (Homo sapiens, UniProt O43318); experiment: Inhibition of recombinant human TAK1 using Ulight-FLGFTYVAP as substrate incubate for 90 mins by LANCE assay
[33] = Toxicity in BALB/c mouse assessed as free movement at 2 g/kg, po measured after 7 days of administration; settings: in vivo, 168 h
[34] = biological target: Calcium/calmodulin-dependent protein kinase type II subunit beta (Homo sapiens, UniProt Q13554); experiment: Inhibition of CAMK2 (unknown origin)
[35] = Metabolic stability in human liver microsomes assessed as intrinsic clearance at 100 uM/L measured upto 90 mins by LC-MS/MS analysis; format: ADME, Microsome; settings: 1.5 h
[36] = Toxicity in BALB/c mouse assessed as clinical signs at 2 g/kg, po measured after 7 days of administration; settings: in vivo, 168 h
[37] = biological target: BDNF/NT-3 growth factors receptor (Homo sapiens, UniProt Q16620); experiment: Inhibition of recombinant human TRKb using Ulight-Poly GAT[EAY(1:1:1)]n as substrate incubate for 10 mins by LANCE assay
[38] = biological target: Receptor tyrosine-protein kinase erbB-2 (Homo sapiens, UniProt P04626); experiment: Inhibition of ErBB2 (unknown origin)
[39] = biological target: Dual specificity mitogen-activated protein kinase kinase 1 (Homo sapiens, UniProt Q02750); experiment: Inhibition of recombinant human MEK1 using inactivated ERK2 as substrate incubate for 60 mins by LANCE assay

C=CC(=O)N1CCC(Cn2cc(-c3ccc4c(c3)OCO4)c3c(N)ncnc32)CC1
Cmax [1]: 3130 ng/mL
AUCt [2]: 2522.28 ng·h/mL
half-life at 100 µM [3]: 3.12 h
half-life at 100 µM [4]: 5.25 h
IC50 [5]: > 10 µM
IC50 [6]: 0.331 µM
inhibition [7]: inactive
Activity (Mus musculus [8]): Active
t1/2 [9]: 5.18 h
IC50 [10]: > 10 µM
half-life at 100 µM [11]: 5.5 h
IC50 [12]: 0.146 µM
IC50 [13]: 1 µM
AUC(0-t) at 24 h [14]: 1240 ng·h/mL
IC50 [15]: > 10 µM
IC50 [16]: 0.64 µM
IC50 [17]: 1.13 µM
IC50 [18]: > 10 µM
CLH [19]: 8.2 µL/min/mg
IC50 [20]: > 10 µM
inhibition [21]: inactive
inhibition [22]: Active
CL/F [23]: 45.8 mL/min/kg
CLH [24]: 5.4 µL/min/mg
Activity (Mus musculus [25]): Active
IC50 [26]: 0.504 µM
Activity [27]: Non-Toxic
IC50 [28]: > 10 µM
CLH [29]: 7.4 µL/min/mg
IC50 [30]: > 10 µM
IC50 [31]: > 10 µM
IC50 [32]: > 10 µM
Activity [33]: Non-Toxic
IC50 [34]: > 10 µM
CLH [35]: 4.2 µL/min/mg
Activity [36]: Non-Toxic
IC50 [37]: > 10 µM
IC50 [38]: > 10 µM
IC50 [39]: > 10 µM
